Data set [1] deals with Mut6. The experiment in a line: Cytotox testing (CellTiter-Glo ATP assay) in Mut6 cells. In kind it is cell-based, mouse. The gist of the method: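 Mouse glioblastoma Mut6 neural stem-like cells were grown in EGF/bFGF/N2/B27 medium and plated at 2,000 cells/well on poly-lysine/laminin. About 3 h later they were treated with compound (5 μM final in the stated case) for 4 days. Viability was read as CellTiter-Glo luminescence in quadruplicate, with EC50s fitted.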

The nature of data set [2]: In vitro plasma half-life. Format: in vitro ADME. Particulars: mouse, plasma, murine plasma, read-out: Plasma T1/2 (converted). As for the experimental part:
12M11 (2 μM final concentration) was incubated with murine plasma and saline for 0-1440 minutes. Reactions were quenched with 200 μl (1:2) of methanol containing 0.1% formic acid and 200 ng/ml IS (IS final conc.=100 ng/mL). Samples were vortexed for 15 seconds, incubated at RT for 10 minutes and spun for 5 minutes at 13.2K rpm. Supernatant ([…]) was then transferred to an eppendorf tube and spun in a table top, chilled centrifuge for 5 minutes at 13.2K rpm. Supernatant (800 μL) was transferred to an HPLC vial (w/out insert). Analyzed by Qtrap 3200 mass spectrometer. These methods were used data obtained in the FIGS. 22C and 22F.

In the next data set the test system is astrocytes. Description: Cytotox testing (CellTiter-Glo) in astrocytes. Format: cell-based. The protocol: Mut6 tumor cells were cultured in DMEM/F12 media supplemented by EGF (10 ng/mL), basic FGF (10 ng/mL), heparin (4 ug/mL), glucose (total 21 mM), NaHCO3 (113 μg/mL), Hepes (119 μg/mL), glutamine (2 mM), sodium pyruvate (1 mM), N2 supplement (ThermoFisher Gibco 17502-048, 100×, at 100-fold dilution), B27 supplement (ThermoFisher Gibco 12587-010, 50×, at 100-fold dilution), and penicillin/streptomycin (ThermoFisher, final 1%). Cells were maintained in Ultra-low attachment plate (Corning) as sphere-forming cells. For ATP assays and protein/RNA isolation, cells were plated into 96-well plates or 6-well plated that were coated with poly-lysine (Sigma P6407, 10 μg/mL in PBS, 4 hr at 37° C.) and laminin (ThermoFisher 23017015, ˜5 mg/L in PBS, overnight at 37° C.). MEFs and Astrocytes were cultured in DMEM supplemented with 10% FBS and 1% Penicillin/Streptomycin.
2,000 cells were plated into each well of 96-well plates. About 3 hours later, cells were treated by 12M11, at 800-fold dilution (4 mM stock was diluted into 5 μM final concentration). Cells were further incubated for 4 days. CellTiter-Glo assay (Promega) was performed according to manufacturer's instructions, by adding 20 μL of reagent into each well. Luminescence signal was detected by the PolarStar plate reader (BMG Labtech). Experiments were performed in quadruplicate, and results are presented with mean average −/+ standard deviation. EC505 were calculated by GraphPad Prism6 software.

The test system of data set [3] is DAOY (medulloblastoma) cells. Description: CellTiter-Glo cell viability in DAOY cells. Format: cell-based. The protocol:
The activity of compound 12M11 was tested against a variety of cancer cell lines (see FIG. 2A), including those are routinely used in the literature such as HeLa, DAOY, MCF7, 435 and HCC38 cells. […] Just as for MEF cells, without wishing to be bound by any theory, it is believed that the resistance of DAOY cells to the OxyPhos inhibitor 12M11 can be attributed to their higher ATP levels per cell (FIG. 13B) combined with lower intrinsic OxyPhos activity as assessed by TMRE staining (FIG. 13C).

Another data set relates to Phospho-S6. Description: p-S6 western blot in Mut6 cells. In kind it is cell-based, mouse. As for the experimental part: Mut6 tumor cells and MEFs were treated by DMSO or 1 μM 12M11 for the indicated times. Cell lysate was prepared by RIPA buffer with phosphatase inhibitor (Thermo) and protease inhibitor (Roche). Antibodies are purchased from Santa Cruz (ATF4), Cell Signaling (pS6, S6, AMPK, and pAMPK), and Millipore (Gapdh).

In data set [4] the test system is mitochondrial membrane potential. Description: TMRE mitochondrial membrane potential staining in Mut6 cells. Format: cell-based, mouse. The note with it: within 30 min. As for the experimental part:
TMRE mitochondrial membrane potential assay kit was purchased from Abcam (113852) and the assay was performed according to the manufacturer's protocol. Briefly, cells were pre-incubated with 1 μM 12M11 (10 min or 18 hrs) or 100 nM FCCP (10 min) and incubated for additional 20 min with 200 nM TMRE before pictures were taken.

The test system of data set [5] is Mut6. Description: OCR and ECAR measurement (Seahorse) in Mut6. Format: cell-based, mouse. The protocol:
(§1) Oxygen consumption rate (OCR) and extracellular acidification rate (ECAR) were measured by Seahorse Bioscience instrument (XF24) with 80-90% confluent cells, according to the manufacturer's protocol. Briefly, cells were equilibrated for 1 hr at 37° C. incubator lacking CO2. Oxygen concentration and pH in media were measured during sequential treatment with 12M11, Oligomycin (1 μM), FCCP (1 μM), and Rotenone (200 nM). A minimum of three wells were utilized per condition to calculate OCR and ECAR.

The test system of a further data set is MEF. The experiment in a line: OCR and ECAR measurement (Seahorse) in MEF. Format: cell-based, mouse. As for the experimental part: as §1
The subject of data set [6] is Mut6. Description: Glucose and lactate in culture media of Mut6 cells. In kind it is cell-based, mouse. The note with it: Mut6, 7 hrs incubation. The protocol: Mut6 cells were incubated with 12M11 for 7 hrs, and the collected culture media was measured for glucose, lactate, glutamine, and glutamate (Birsoy, et al., 2014; Lunt and Vander Heiden, 2011). […] Oxygen consumption and extracellular acidification using a XF24 Seahorse analyzer was used to measure cellular oxygen consumption rate (OCR) and extracellular acidification rate (ECAR) (FIG. 8).

The text below walks through data of patent US20180354909A1, “SUBSTITUTED BENZIMIDAZOLIUM, PYRIDO-IMIDAZOLIUM, OR PYRAZINO-IMIDAZOLIUM COMPOUNDS AS CHEMOTHERAPEUTICS” (The Board of Regents of the University of Texas System, priority 2015, published 2018).

“Also recorded” adds a separate entry of the source.

With `CCc1n(CC(=O)O[C@@H]2C[C@H](C)CC[C@H]2C(C)C)c2ccccc2[n+]1C.[Cl-]` [Compound 12M11], the “activity against Mut6 cells” value in the data set on Mut6 [1] (CellTiter-Glo) is “specific nanomolar activity; also recorded: specific toxicity”. For the same molecule, the EC50 with Mut6 [1] (Mus musculus, Mut6 cells, FIG. 1, read-out: potency) is roughly 0.1 µM. For the same molecule, the “cell death on Mut6 cells” value with Mut6 [1] (after six hours of exposure) was “irrevocable cell death”. Moreover, the half-life at 2 μM in [2] is 4 min. The “activity against astrocytes” value in the data set with astrocytes is listed as “no to minimal effect; also recorded: no activity; also recorded: uniquely resistant”. Moreover, in data set [3], the “sensitivity of DAOY cells” value is on record as “resistance”. The Phospho-S6 protein level result in the data set with Phospho-S6 was “down regulation”. The “oxidative phosphorylation / mitochondrial membrane potential by TMRE staining” value in [4] is recorded as “impairs oxidative phosphorylation”. Also, in the data set on Mut6 [5], the “extracellular acidification rate (ECAR)” value was “dramatically increases” and the “oxygen consumption rate (OCR)” value is on record as “decrease”. Further, in the data set with MEF, the extracellular acidification entry is reported as “do not increase acidification significantly” and the “oxygen consumption rate (OCR)” value is on record as “decrease”. In the data set on Mut6 [6], the lactate secretion result is “increased” and the uptake of glucose entry is listed as “increased”.
